Test results taken from ChEMBL document CHEMBL4651402, “Screening of ~5500 FDA-approved drugs and clinical candidates for anti-SARS-CoV-2 activity” (2021).

Tested on: SARS-CoV-2
Experiment: microbe, parasite or virus in culture
Settings: Severe acute respiratory syndrome coronavirus 2, Vero C1008, 48 h

CCCCC(=O)O[C@]1(C(=O)CO)C(C)CC2C3CCC4=CC(=O)C=CC4(C)[C@@]3(F)C(O)CC21C (some centres undefined) was tested, and the IC50 was > 20 µM and the IC50 (read-out: pIC50 (converted)) was > 20 µM.
For NC(Cc1ccc(O)cc1)C(=O)O (centres undefined), the IC50 was > 20 µM and the IC50 (read-out: pIC50 (converted)) was > 20 µM.
In the case of CN(C)CCCCCCN(C)C, the IC50 is reported as > 20 µM and the IC50 (read-out: pIC50 (converted)) is reported as > 20 µM.
For CCN(CC)CCOC(=O)C1(c2ccc([N+](=O)[O-])cc2)CCCC1, the IC50 was > 20 µM and the IC50 (read-out: pIC50 (converted)) was > 20 µM.
For COc1ccc(-n2nc3c4c([nH]cc-3c2=O)CCCCC4)cc1, the IC50 was > 20 µM and the IC50 (read-out: pIC50 (converted)) was > 20 µM.
For COc1cc2c3cc1Oc1cc(ccc1O)CC1c4c(cc(OC)c(O)c4Oc4ccc(cc4)CC3N(C)CC2)CC[N+]1(C)C (centres undefined), the IC50 was > 20 µM and the IC50 (read-out: pIC50 (converted)) was > 20 µM.
With C1CCN2CC3CC(CN4CCCCC34)C2C1 (centres undefined) the IC50 was > 20 µM and the IC50 (read-out: pIC50 (converted)) was > 20 µM.
With CC1C2Cc3ccc(O)cc3C1(C)CCN2CC1CC1 (centres undefined) the IC50 was > 20 µM and the IC50 (read-out: pIC50 (converted)) was > 20 µM.
For CC12CCC3C(CC=C4CC(O)CCC43C)C1CCC2=O (centres undefined), the IC50 was > 20 µM and the IC50 (read-out: pIC50 (converted)) was > 20 µM.
With O=C(O)C=Cc1ccc(O)c(O)c1 the IC50 was > 20 µM and the IC50 (read-out: pIC50 (converted)) was > 20 µM.
For CN1C2CCC1CC(OC(c1ccccc1)c1ccccc1N)C2 (centres undefined), the IC50 was > 20 µM and the IC50 (read-out: pIC50 (converted)) was > 20 µM.
In the case of COc1ccc2c3c1O[C@H]1[C@@H](O)CCC4[C@@H](C2)N(C)CC[C@@]341 (some centres undefined), the IC50 is reported as > 20 µM and the IC50 (read-out: pIC50 (converted)) is reported as > 20 µM.
With NCCCCCCNS(=O)(=O)c1cccc2c(Cl)cccc12 the IC50 was > 20 µM and the IC50 (read-out: pIC50 (converted)) was > 20 µM.
Cc1cn(C2C=CC(CO)O2)c(=O)[nH]c1=O (centres undefined) was tested, and the IC50 was > 20 µM and the IC50 (read-out: pIC50 (converted)) was > 20 µM.
For N=C(N)NCCC[C@H](NC(=O)c1ccc2ccccc2c1O)C(=O)N1CCC[C@H]1C(N)=O, the IC50 was > 20 µM and the IC50 (read-out: pIC50 (converted)) was > 20 µM.
For CC12CCC3c4ccc(OC(=O)c5ccccc5)cc4CCC3C1CCC2O (centres undefined), the IC50 was > 20 µM and the IC50 (read-out: pIC50 (converted)) was > 20 µM.
For O=C(CCc1ccc(O)cc1)c1c(O)cc(O)cc1OC1OC(CO)C(O)C(O)C1O (centres undefined), the IC50 was > 20 µM and the IC50 (read-out: pIC50 (converted)) was > 20 µM.
CC(=O)O[C@H]1C[C@H](O[C@H]2[C@@H](O)C[C@H](O[C@H]3[C@@H](O)C[C@H](OC4CCC5(C)C(CCC6C5CCC5(C)C(C7=CC(=O)OC7)CCC65O)C4)O[C@@H]3C)O[C@@H]2C)O[C@H](C)[C@H]1O[C@@H]1O[C@H](CO)[C@@H](O)[C@H](O)[C@H]1O (some centres undefined) was tested, and the IC50 was > 20 µM and the IC50 (read-out: pIC50 (converted)) was > 20 µM.
With CC/C(=C(\CC)c1ccc(OP(=O)(O)O)cc1)c1ccc(OP(=O)(O)O)cc1 the IC50 was > 20 µM and the IC50 (read-out: pIC50 (converted)) was > 20 µM.
With CC1(C)OC2CC3C4CCC5=CC(=O)C=CC5(C)C4C(O)CC3(C)[C@]2(C(=O)CO)O1 (some centres undefined) the IC50 was > 20 µM and the IC50 (read-out: pIC50 (converted)) was > 20 µM.
With C/C=C/CC(C)C(O)C1C(=O)NC(CC)C(=O)N(C)CC(=O)N(C)C(C(C)CC)C(=O)NC(C(C)C)C(=O)N(C)C(CC(C)C)C(=O)NC(C)C(=O)NC(C)C(=O)N(C)C(CC(C)C)C(=O)N(C)C(CC(C)C)C(=O)N(C)C(C(C)C)C(=O)N1C (centres undefined) the IC50 was > 20 µM and the IC50 (read-out: pIC50 (converted)) was > 20 µM.
In the case of CC(=O)O[C@]1(C(C)=O)CCC2C3CCC4=CC(=O)CCC4C3C(C)CC21C (some centres undefined), the IC50 is reported as > 20 µM and the IC50 (read-out: pIC50 (converted)) is reported as > 20 µM.
C#C[C@@]1(O)CCC2C3CCc4cc(OC)ccc4C3CCC21C (some centres undefined) was tested, and the IC50 was > 20 µM and the IC50 (read-out: pIC50 (converted)) was > 20 µM.
CCN(CC)CC(C)(C)COC(=O)c1ccc(N)cc1 was tested, and the IC50 was > 20 µM and the IC50 (read-out: pIC50 (converted)) was > 20 µM.
With CC12CCC(O)CC1=CCC1C2CCC2(C)C(O)CCC12 (centres undefined) the IC50 was > 20 µM and the IC50 (read-out: pIC50 (converted)) was > 20 µM.
CC12CCC3C(CC[C@H]4Cc5n[nH]cc5C[C@]34C)C1CC[C@]2(C)O (some centres undefined) was tested, and the IC50 was > 20 µM and the IC50 (read-out: pIC50 (converted)) was > 20 µM.
In the case of COc1ccc2c3c1OC1C(O)CCC4C(C2)N(C)CCC341 (centres undefined), the IC50 is reported as > 20 µM and the IC50 (read-out: pIC50 (converted)) is reported as > 20 µM.
For CCC(CO)NC(=O)[C@@H]1C=C2c3cccc4[nH]cc(c34)CC2N(C)C1 (some centres undefined), the IC50 was > 20 µM and the IC50 (read-out: pIC50 (converted)) was > 20 µM.
COc1ccccc1N1CCN(CCn2c(=O)[nH]c3ccccc3c2=O)CC1 was tested, and the IC50 was > 20 µM and the IC50 (read-out: pIC50 (converted)) was > 20 µM.
Cc1cccc(N2CCN(CCCOc3ccc4ccc(O)nc4c3)CC2)c1C was tested, and the IC50 was > 20 µM and the IC50 (read-out: pIC50 (converted)) was > 20 µM.
With Nc1nc(N)c2nc(-c3ccccc3)c(N)nc2n1 the IC50 was > 20 µM and the IC50 (read-out: pIC50 (converted)) was > 20 µM.
In the case of CCOCN1C2=C(C(=O)Nc3ccccc3F)C(=O)CCN2c2ccc(F)cc21, the IC50 is reported as > 20 µM and the IC50 (read-out: pIC50 (converted)) is reported as > 20 µM.
